ChEMBL document CHEMBL1145311 (Bioorg Med Chem Lett, 2006)
pIC50: −log10 of the molar value.

Target: T1, Dihydrofolate reductase (Pneumocystis carinii, UniProt P16184)
T1 sequence (P16184 whole entry): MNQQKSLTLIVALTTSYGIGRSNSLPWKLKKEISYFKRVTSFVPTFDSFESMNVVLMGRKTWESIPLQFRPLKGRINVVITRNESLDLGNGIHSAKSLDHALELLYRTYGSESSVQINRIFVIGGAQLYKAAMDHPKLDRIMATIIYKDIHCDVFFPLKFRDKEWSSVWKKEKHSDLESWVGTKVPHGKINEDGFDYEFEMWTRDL
Description: Inhibition of Pneumocystis carinii DHFR

Nc1nc(N)c2nc(CN3c4ccccc4CCc4ccccc43)cnc2n1
pIC50: 6.68
